One assay relates to Enterococcus faecium. Put plainly: Antibacterial activity against vancomycin-resistant Enterococcus faecium 628016. In kind it is functional.
In a further assay the test system is Enterococcus faecalis. In words: Antibacterial activity against vancomycin-sensitive Enterococcus faecalis 683026. It is filed as functional.
The nature of assay [1]: (§1) Compound was tested for its binding affinity against PBP2' receptor in Staphylococcus aureus.
Assay [2] in a line: In vitro binding affinity towards PBP2'' of Staphylococcus aureus using [14C]benzylpenicillin as radioligand.
Assay [3] has as its system Staphylococcus aureus. Put plainly: Compound was tested for its binding affinity against PBP2'' receptor in Staphylococcus aureus. Values taken from literature. It is filed as functional.
The test system of assay [4] is Staphylococcus aureus. Put plainly: Antibacterial activity against methicillin-resistant Staphylococcus aureus 601053. In kind it is functional.
The test system of assay [5] is Staphylococcus aureus. In words: Antibacterial activity against methicillin-resistant Staphylococcus aureus 607004. In kind it is functional.
The subject of assay [6] is Staphylococcus aureus. Put plainly: Antibacterial activity against methicillin-sensitive Staphylococcus aureus 601055. It is filed as functional.
Assay [7] concerns Staphylococcus aureus. In words: Antibacterial activity against methicillin-sensitive Staphylococcus aureus 601055.(grown in the presence of blood). In kind it is functional.
A further assay has as its system Streptococcus pneumoniae. In words: Antibacterial activity against penicillin-resistant Streptococcus pneumoniae 671319. In kind it is functional.
Assay [8] concerns Staphylococcus haemolyticus. In words: Antibacterial activity against methicillin-resistant Staphylococcus haemolyticus 601117. In kind it is functional.
In assay [9] the test system is Staphylococcus aureus. Described as §1. It is filed as functional, organism-based.
For assay [10], the system named is Staphylococcus aureus. In words: Compound was tested for its antibacterial activity against methicillin-resistant Staphylococcus aureus. It is filed as functional.

Values after ≈ are worked out from the molar mass of the structure shown. Some results are limits rather than exact numbers.

One may read the MIC as the least concentration at which growth counts as inhibited. As usually defined, the IC50 is the point on the concentration scale where inhibition reaches its midpoint. Read a low IC50 as greater potency.

On to `C[C@@H](O)[C@H]1C(=O)N2C(C(=O)O)=C(COc3ccc4cc(C(N)=O)ccc4c3)[C@H](C)[C@H]12`, for which the MIC against Enterococcus faecium stood at 1 µg/mL (≈ 2.44 µM); against Enterococcus faecalis it was 2 µg/mL (≈ 4.87 µM); in the assay on Staphylococcus aureus [4] it was 0.25 µg/mL (≈ 0.609 µM); with Staphylococcus aureus [5] it was 0.5 µg/mL (≈ 1.22 µM); in the assay with Staphylococcus aureus [6], 0.008 µg/mL (≈ 0.0195 µM); in the assay with Staphylococcus aureus [7], 0.016 µg/mL. Further, the figures for the MIC (with Streptococcus pneumoniae; in assay [8]) were 0.03 µg/mL (≈ 0.0731 µM) and 2 µg/mL (≈ 4.87 µM), respectively. Moreover, the values for the IC50 (in assay [1]; in assay [2]; in the assay with Staphylococcus aureus [3]) were over 16 µg/mL, over 16 µg/mL and 8 µg/mL (≈ 19.5 µM), respectively.
As to `C[C@@H](O)[C@H]1C(=O)N2C(C(=O)O)=C(SCCNC=N)C[C@H]12` [IMIPENEM ANHYDROUS], the MIC in the assay with Enterococcus faecium was found to be 4 µg/mL (≈ 13.4 µM); in the assay on Enterococcus faecalis, 2 µg/mL (≈ 6.68 µM); in the assay on Staphylococcus aureus [4], 8 µg/mL (≈ 26.7 µM); against Staphylococcus aureus [5], 64 µg/mL (≈ 214 µM); against Staphylococcus aureus [6], 0.03 µg/mL (≈ 0.1 µM); in the assay with Staphylococcus aureus [7], 0.015 µg/mL. In addition, the figures for the MIC (in the assay on Staphylococcus aureus [10]; in the assay on Streptococcus pneumoniae; in assay [8]) were 128 µg/mL (≈ 428 µM), 0.12 µg/mL (≈ 0.401 µM) and 64 µg/mL (≈ 214 µM), respectively. The IC50 in assay [2] was 430 µg/mL (≈ 1440 µM); with Staphylococcus aureus [9], 430 µg/mL (≈ 1440 µM); in the assay on Staphylococcus aureus [3] it was 220 µg/mL (≈ 735 µM).

Source of the values: ChEMBL document CHEMBL1129198, “Synthesis and antibacterial activity of lipophilic carbapenems with anti-MRSA activity” (Bioorg Med Chem Lett, 1996).
